From patent US9061994B1, “Materials and methods useful to induce vacuolization, cell death, or a combination thereof” (The University of Toledo, priority 2011, dated 2015)
Entries after “also recorded” stand apart in the source; their conditions may differ. Like-named read-outs stand apart in the source and are kept apart here.

Assays:
Assay type in all cases: cell-based, human
U251 glioblastoma cells [1] = assay: Cell morphology / vacuolization by phase-contrast microscopy
U251 glioblastoma cells [2] = assay: Sulforhodamine B (SRB) growth inhibition assay; settings: for GI50: Homo sapiens; for growth inhibitory (GI) activity, in words: 48 h SRB, Table 1, Table 2 (FIG. 64), FIG. 63
Method: Cells experiencing methuosis initially undergo extreme cytoplasmic vacuolization which can be readily assessed by phase contrast microscopy. As viability is compromised (usually between 24-48 h), the cells detach from the culture surface and lose membrane integrity. […] Although methuosis can occur in a broad spectrum of human tumor cell lines, SAR studies were carried out with U251 glioblastoma cells. Therefore, this cell line was used in the present evaluation.
Total protein in adherent cells was measured by the sulforhodamine B (SRB) colorimetric assay, following standard procedures for anticancer drug screening used by the U.S. National Cancer Institute. […] On the day after plating, four wells were assayed to establish a pre-drug (time-0) baseline. Test compounds were diluted as described above and added to the remaining wells. The medium and compounds were replenished after 24 hr. SRB assays were performed at a 48 h endpoint as described, using a SpectraMax Plus 384 plate reader (Molecular Devices, Sunnyvale, Calif.) to determine absorbance at 515 nm.
Cells were seeded in 96-well plates as described in the methods. After 24 h, each compound was added at the indicated concentrations and SRB assays were performed after an additional 48 h. Each point represents the mean±SD of values from four wells. The dotted line on each graph indicates the average absorbance of four wells sampled at time-0 (i.e., the time that the compounds were added).
The human U251 glioblastoma cell line was obtained from the DCT Tumor Repository (National Cancer Institute, Fredrick, Md.). […] All test compounds were dissolved in DMSO and serially diluted in DMSO so that the desired final drug concentrations could be achieved by making a 1/1000 dilution into the culture medium. One day after plating, four wells were assayed to establish a pre-drug (time-0) baseline. At the same time, fresh medium containing test compounds was added to the remaining wells. Control wells received DMSO alone. SRB assays were performed at a 48 h endpoint. To minimize the impact of potential variations in stability among the compounds, medium with test compound was replenished after the first 24 h.

U251 glioblastoma cells [3] = assay: Trypan blue dye-exclusion viability assay; settings: for cell viability, in words: 10 μM, 2 days; for viability at 10 µM: Homo sapiens, U-251, 48 h, each compound at 10 μM for 2 days, mean ± SD of three cultures
Method: To directly compare the effects of different compounds on cell viability, the trypan blue dye-exclusion assay was utilized to distinguish live (unstained) from dead (blue) cells. U251 cells were seeded in 35 mm diameter dishes at a density of 100,000 cells/dish. Twenty-four hours later, test compounds were added in fresh medium at a final concentration of […] received an equivalent volume of vehicle (DMSO). […] At the end of the incubation, floating and adherent cells were combined and collected by centrifugation. Cells were washed with Hank's balanced salt solution (HBSS) and incubated with 0.2% trypan blue solution (Sigma, St. Louis, Mo.) for 5 min at room temperature. The percentage of dead cells was determined by light microscopy using a hemocytometer. Three separate cultures were assayed for each compound.
Cells were seeded in 35 mm dishes and treated for 48 h with compounds at a final concentration of […] blue dye-exclusion assays were performed as described in the methods. Values are the mean±SD of separate assays performed on three parallel cultures.

U251 glioblastoma cells [4] = assay: SAR comparison of methuosis induction (vacuolization, MTT viability, colony formation) versus MIPP; settings: 10 μM, morphology 24 h and 48 h, MTT 48 h, colony formation (FIGS. 36, 48)
Description: Analogs based on the α,β-unsaturated ketone core were designed from Claisen-Schmidt condensations between indole-3-carboxaldehydes and aromatic ketones. Such aldol condensations are known to proceed well employing secondary amines as catalysts. Initially, the orientation of the pyridine nitrogen was investigated.

[5] = concentration not singled out ([…] and 10 μM or as in figure)

Molecule: CCCc1[nH]c2ccc(OC)cc2c1/C=C/C(=O)c1ccncc1 [107b, trans-3-(5-methoxy-2-propylindol-3-yl)-1-(4-pyridinyl)-2-propen-1-one]
- cell morphology / vacuolization (U251 glioblastoma cells [1]; 10 μM): extensively vacuolated
- GI50 (U251 glioblastoma cells [2]; U-251, 48 h, read-out: GI50): 15.3 µM
- cell viability, in words (U251 glioblastoma cells [3]): only minimally affected
- viability at 10 µM (U251 glioblastoma cells [3]): 83.9 ± 2.3%

Molecule: COc1ccc2[nH]c(C(C)C)c(/C=C/C(=O)c3ccncc3)c2c1 [107c, trans-3-(2-isopropyl-5-methoxyindol-3-yl)-1-(4-pyridinyl)-2-propen-1-one]
- cell morphology / vacuolization (U251 glioblastoma cells [1]; 10 μM): extensively vacuolated
- GI50 (U251 glioblastoma cells [2]; U-251, 48 h, read-out: GI50): > 20 µM
- cell viability, in words (U251 glioblastoma cells [3]): only minimally affected
- viability at 10 µM (U251 glioblastoma cells [3]): 78.8 ± 1.1%

Molecule: COc1ccc2[nH]c(CC(C)C)c(/C=C/C(=O)c3ccncc3)c2c1 [107d, trans-3-(2-isobutyl-5-methoxyindol-3-yl)-1-(4-pyridinyl)-2-propen-1-one]
- cell morphology / vacuolization (U251 glioblastoma cells [1]; 10 μM): extensively vacuolated
- GI50 (U251 glioblastoma cells [2]; U-251, 48 h, read-out: GI50): 16.6 µM
- cell viability, in words (U251 glioblastoma cells [3]): only minimally affected
- viability at 10 µM (U251 glioblastoma cells [3]): 87.4 ± 1.5%

Molecule: CCCCOc1ccc2[nH]c(C)c(/C=C/C(=O)c3ccncc3)c2c1 [402d, trans-3-(5-butoxy-2-methylindole-3-yl)-1-(4-pyridinyl)-2-propen-1-one]
- cell morphology / vacuolization (U251 glioblastoma cells [1]; [5]): produced much fewer and smaller vacuoles and had little effect on cell density
- growth inhibitory (GI) activity, in words (U251 glioblastoma cells [2]; U251): markedly reduced; also recorded: complete lack of GI activity

Molecule: Cc1[nH]c2ccc(N)cc2c1/C=C/C(=O)c1ccncc1 [402g, trans-3-(5-amino-2-methylindol-3-yl)-1-(4-pyridinyl)-2-propen-1-one]
- cell morphology / vacuolization (U251 glioblastoma cells [1]; 10 μM): did cause vacuolization after 48 h
- growth inhibitory (GI) activity, in words (U251 glioblastoma cells [2]; U251): no GI activity in the concentration range tested

Molecule: NCc1ccc2[nH]cc(/C=C/C(=O)c3ccncc3)c2c1 [402i, trans-3-(5-aminomethylindol-3-yl)-1-(4-pyridinyl)-2-propen-1-one]
- cell morphology / vacuolization (U251 glioblastoma cells [1]; [5]): completely inactive in both growth inhibition and vacuolization assays
- growth inhibitory (GI) activity, in words (U251 glioblastoma cells [2]; U251): completely inactive in both growth inhibition and vacuolization assays

Molecule: O=C(/C=C/c1c[nH]c2ccccc12)c1ccccc1 [compound 9, trans-3-(1H-indol-3-yl)-1-phenyl-2-propen-1-one]
- methuosis-inducing activity compared with compound 2 (MIPP) (U251 glioblastoma cells [4]): relatively ineffective at inducing methuosis compared with MIPP

Molecule: O=C(/C=C/c1c[nH]c2ccccc12)c1ccccn1 [compound 10, trans-3-(1H-indol-3-yl)-1-(2-pyridinyl)-2-propen-1-one]
- methuosis-inducing activity compared with compound 2 (MIPP) (U251 glioblastoma cells [4]): relatively ineffective at inducing methuosis compared with MIPP

Molecule: O=C(/C=C/c1c[nH]c2ccccc12)c1cccnc1 [compound 11, trans-3-(1H-indol-3-yl)-1-(3-pyridinyl)-2-propen-1-one]
- methuosis-inducing activity compared with compound 2 (MIPP) (U251 glioblastoma cells [4]): relatively ineffective at inducing methuosis compared with MIPP

Molecule: COc1ccc2[nH]cc(/C=C/C(=O)c3ccncc3)c2c1 [compound 13, trans-3-(5-methoxy-1H-indol-3-yl)-1-(4-pyridinyl)-2-propen-1-one]
- cell morphology / vacuolization (U251 glioblastoma cells [1]; 10 μM): extensively vacuolated
- GI50 (U251 glioblastoma cells [2]; U-251, 48 h, read-out: GI50): 18.6 µM
- cell viability, in words (U251 glioblastoma cells [3]): only minimally affected
- viability at 10 µM (U251 glioblastoma cells [3]): 91.2 ± 0.7%

Molecule: O=C(/C=C/c1c[nH]c2ccc(O)cc12)c1ccncc1 [compound 15, trans-3-(5-hydroxy-1H-indol-3-yl)-1-(4-pyridinyl)-2-propen-1-one]
- methuosis-inducing activity compared with compound 2 (MIPP) (U251 glioblastoma cells [4]): greatly reduced activity of the compound in all of the assays

Molecule: COc1ccc2[nH]cc(/C=C/C(=O)c3cccnc3)c2c1 [compound 16, trans-3-(5-methoxy-1H-indol-3-yl)-1-(3-pyridinyl)-2-propen-1-one]
- methuosis-inducing activity compared with compound 2 (MIPP) (U251 glioblastoma cells [4]): Loss of activity

Molecule: COc1ccc2[nH]cc(/C=C/C(=O)c3cnccn3)c2c1 [compound 17, trans-3-(5-methoxy-1H-indol-3-yl)-1-(pyrazine)-2-propen-1-one]
- methuosis-inducing activity compared with compound 2 (MIPP) (U251 glioblastoma cells [4]): Loss of activity

Molecule: COc1ccc2c(c1)c(/C=C/C(=O)c1ccncc1)cn2C [compound 20, trans-3-(5-methoxy-1-methyl-Indol-3-yl)-1-(4-pyridinyl)-2-propen-1-one]
- methuosis-inducing activity compared with compound 2 (MIPP) (U251 glioblastoma cells [4]): induced some cytoplasmic vacuolization but had modest effects on cell viability

Molecule: O=C(/C=C/c1c[nH]c2ccc(O)cc12)c1ccncc1 [compound 21, trans-3-(5-hydroxy-1H-indol-3-yl)-1-(4-pyridinyl)-2-propen-1-one]
- methuosis-inducing activity compared with compound 2 (MIPP) (U251 glioblastoma cells [4]): marked reduction in activity compared to the 5-methoxy compound 19

Molecule: CCc1[nH]c2ccc(OC)cc2c1/C=C/C(=O)c1ccncc1 [compound 107a, trans-3-(2-ethyl-5-methoxyindol-3-yl)-1-(4-pyridinyl)-2-propen-1-one]
- cell morphology / vacuolization (U251 glioblastoma cells [1]; 10 μM): morphological effects indistinguishable from those observed with the same concentration of MOMIPP
- GI50 (U251 glioblastoma cells [2]; U-251, 48 h, read-out: GI50): 3.2 µM
- GI50 (U251 glioblastoma cells [2]; U-251, U251, dose-response curves repeated six more times (Table 1 footnote g), read-out: GI50, means (±SD) for all seven determinations): 2.8 µM
- growth inhibitory (GI) activity, in words (U251 glioblastoma cells [2]; U251): not statistically different from the MOMIPP
- cell viability, in words (U251 glioblastoma cells [3]): substantial loss of cell viability
- viability at 10 µM (U251 glioblastoma cells [3]): 34.6 ± 1.1%

Molecule: COc1ccc2[nH]c(C)c(/C=C/C(=O)c3cccnc3)c2c1 [meta-MOMIPP, trans-3-(5-methoxy-2-methylindol-3-yl)-1-(3-pyridinyl)-2-propen-1-one]
- cell morphology / vacuolization (U251 glioblastoma cells [1]; 10 μM): did not accumulate vacuoles
- GI50 (U251 glioblastoma cells [2]; U-251, 48 h, read-out: GI50): 16.9 µM
- viability at 10 µM (U251 glioblastoma cells [3]): 96.2 ± 1.3%

Molecule: trans-3-[5-((4-carboxyphenyl)-methoxy)-1H-Indol-3-yl)]-1-(4-pyridinyl)-2-propen-1-one [compound 27]
- methuosis-inducing activity compared with compound 2 (MIPP) (U251 glioblastoma cells [4]): neither compound 26 nor compound 27 induced methuosis

Molecule: trans-3-[5-((4-methylbenzoate)methoxy)-1H-Indol-3-yl)]-1-(4-pyridinyl)-2-propen-1-one [compound 26]
- methuosis-inducing activity compared with compound 2 (MIPP) (U251 glioblastoma cells [4]): neither compound 26 nor compound 27 induced methuosis
